Experiments:
Test in all cases: relative viability (nuclei count vs DMSO), 5 days (fraction); higher = more cells survive
[1] = compound: CC(C)C[C@@H](C(=O)N[C@H](C(=O)OC1CCCC1)c1ccccc1)[C@H](O)C(=O)NO [Tosedostat] + CCNC(=O)c1noc(-c2cc(C(C)C)c(O)cc2O)c1-c1ccc(CN2CCOCC2)cc1 [Luminespib] (partner 0.01 µM)
How it was run: (§1)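 Relative viability is defined as nuclei in treated wells over nuclei in vehicle wells. Duplicate plates were run and medians reported. Lung cancer cell lines in 1536-well plates were dosed by pin tool one day after seeding, with one drug or with a fixed anchor-drug dose plus five library-drug doses (not always all listed) in √10 steps, and nuclei were counted after 5 days.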

[2] = compound: CC(C)C[C@@H](C(=O)N[C@H](C(=O)OC1CCCC1)c1ccccc1)[C@H](O)C(=O)NO [Tosedostat] + Cc1nc(Nc2ncc(C(=O)Nc3c(C)cccc3Cl)s2)cc(N2CCN(CCO)CC2)n1 [Dasatinib] (partner 0.075 µM)
How it was run: as §1

[3] = compound: CC(C)C[C@@H](C(=O)N[C@H](C(=O)OC1CCCC1)c1ccccc1)[C@H](O)C(=O)NO [Tosedostat] + COc1cccc2cc(-c3nc([C@H]4CC[C@H](C(=O)O)CC4)n4ncnc(N)c34)[nH]c12 [OSI-027] (partner 0.5 µM)
How it was run: as §1

[4] = compound: CC(C)C[C@@H](C(=O)N[C@H](C(=O)OC1CCCC1)c1ccccc1)[C@H](O)C(=O)NO [Tosedostat] + Cc1cc(Nc2cc(N3CCN(C)CC3)nc(Sc3ccc(NC(=O)C4CC4)cc3)n2)n[nH]1 [Tozasertib] (partner 0.1 µM)
How it was run: as §1

UMC-11
relative viability ([1]; first compound 0.02 µM): 1.01 | relative viability ([1]; first compound 0.06325 µM): 0.999 | relative viability ([1]; first compound 0.2 µM): 1.03 | relative viability ([1]; first compound 0.6325 µM): 0.977 | relative viability ([1]; first compound 2 µM): 1.12 | relative viability ([2]; first compound 0.02 µM): 0.499 | relative viability ([2]; first compound 0.06325 µM): 0.454 | relative viability ([2]; first compound 0.2 µM): 0.453 | relative viability ([2]; first compound 0.6325 µM): 0.448 | relative viability ([2]; first compound 2 µM): 0.504 | relative viability ([3]; first compound 0.02 µM): 0.473 | relative viability ([3]; first compound 0.06325 µM): 0.464 | relative viability ([3]; first compound 0.2 µM): 0.397 | relative viability ([3]; first compound 0.6325 µM): 0.449 | relative viability ([3]; first compound 2 µM): 0.473 | relative viability ([4]; first compound 0.02 µM): 0.214 | relative viability ([4]; first compound 0.06325 µM): 0.195 | relative viability ([4]; first compound 0.2 µM): 0.206 | relative viability ([4]; first compound 0.6325 µM): 0.197 | relative viability ([4]; first compound 2 µM): 0.194
